Earlier results in paper PMC7395068, “The evolution of strategies to minimise the risk of human drug-induced liver injury (DILI) in drug discovery and development” (Archives of Toxicology, 2020).
Where two headings read alike, the source gives them in different places.

Columns and labels:
[1] = tested on: THLE-Null and THLE-3A4 cells; settings: In vitro Assay; ref Gustafsson 2014; cited from earlier work
[2] = cited from earlier work
[3] = tested on: human hepatocytes; settings: cited from earlier work
[4] = tested on: HepG2 cells, primary human hepatocytes; settings: In vitro Assay; ref Garside 2014; cited from earlier work
[5] = ref Chen 2011; cited from earlier work
[6] = cited from earlier work; remark: listed apart in the source
[7] = tested on: rBsep; settings: In vitro Assay; ref Dawson 2012; cited from earlier work
[8] = tested on: THLE or HepG2 cells, isolated mitochondria, BSEP; settings: In vitro Assay; ref Aleo 2019; cited from earlier work
[9] = tested on: PHH spheroids; settings: In vitro Assay; ref Vorrink 2018; cited from earlier work
[10] = tested on: hLiMTs; settings: In vitro Assay; ref Proctor 2017; cited from earlier work
[11] = tested on: PHH; settings: In vitro Assay; ref Proctor 2017; cited from earlier work
[12] = tested on: primary human hepatocytes, NIH3T3 fibroblasts, BSEP, CYP3A4; settings: In vitro Assay; ref Schadt 2015; cited from earlier work
[13] = tested on: HepG2 C3A spheroid, BSEP, Glu/Gal in HepG2 cells, bioactivation; settings: In vitro Assay; ref Williams 2019; cited from earlier work
[14] = tested on: HepG2 cells; settings: In vitro Assay; ref Persson 2013; cited from earlier work
[15] = tested on: HepG2 cells; settings: In vitro Assay; ref O'Brien 2006; cited from earlier work
[16] = tested on: isolated mouse liver mitochondria; settings: In vitro Assay; ref Porceddu 2012; cited from earlier work

Compound	THLE-Null [1]	THLE-Null/3A4 [1]	Cluster 1-6 +VE Assay [4]	DILI Score (FDA) (1-8) [5]	Inhibition of rBsep cutoff<1& cmax u>.2 [7]	Inhibition of rBsep cutoff<3 [7]	Partition Hybrid HRM Score [8]	Ro2 Hybrid HRM Score [8]	In vivo DILI ([2]; ref Proctor 2017)	In vivo DILI ([2]; ref Vorrink 2018)	In vivo DILI ([2]; ref Williams 2019)	hLiMTs ATP <20 x Cmax [9]	DILI +VE (5-8), DILI -VE (-4) ([6]; ref Chen 2016)	DILI severity category ([6]; ref Chen 2016)	In vivo DILI ([2]; […])	In vivo DILI ([2]; ref Garside 2014)	In vivo DILI ([2]; ref Gustafsson 2014)	In vivo DILI ([2]; ref Xu 2008)	In vivo DILI ([2]; ref O'Brien 2006)	Structural based (HCI) [15]	also measured
COc1cc(C)c(/C=C/C(C)=C/C=C/C(C)=C/C(=O)O)c(C)c1C [acitretin]	+VE	+VE	+VE	5	-VE	+VE															In vivo DILI ([2]; in vivo): +VE; Structural based (HCI) [3]: -VE; DILI +VE (5-8), DILI -VE (-4) ([6]; in vivo): +VE; DILI severity category ([6]; in vivo): vMost-DILI-Concern
COC(c1ccccc1)(c1ccccc1)[C@H](Oc1nc(C)cc(C)n1)C(=O)O [ambrisentan]				5			-VE	-VE	-VE	-VE	-VE	-VE	-VE	Ambiguous DILI-concern							In vivo DILI ([2]; ref Schadt 2015): -VE; hLiMTs ATP <100uM [10]: -VE; PHH ATP <100uM [11]: -VE; Cellular toxicity (3T3 cells) [12]: -VE; Combined Assay [12]: -VE; GSH adduct HML [12]: -VE; Hepatocyte cellular toxicity [12]: -VE; MitoTox 3T3 [12]: -VE; TDI CYP3A4 [12]: -VE; hBSEP inhibition [12]: -VE; Bayesian Machine Learning [13]: -VE
CCCNC(=O)NS(=O)(=O)c1ccc(Cl)cc1 [chlorpropamide]	-VE	-VE	-VE	2	-VE	-VE	-VE	+VE					+VE	vLess-DILI-Concern	+VE	+VE	+VE				In vivo DILI ([2]; ref Aleo 2019): +VE; In vivo DILI ([2]; ref Dawson 2012): +VE
CN(C)/N=N/c1[nH]cnc1C(N)=O [dacarbazine]	-VE	-VE	-VE	6			-VE	+VE		+VE		+VE (IC20 < 20 × Cmax.tot cut-off)	+VE	vMost-DILI-Concern	+VE	+VE	+VE				In vivo DILI ([2]; ref Aleo 2019): +VE
CNCCCN1c2ccccc2CCc2ccccc21 [desipramine]				3				+VE	+VE		+VE		-VE	Ambiguous DILI-concern				-VE			In vivo DILI ([2]; ref Schadt 2015): -VE; hLiMTs ATP <100uM [10]: +VE (IC50 threshold of 100 µM); PHH ATP <100uM [11]: +VE (IC50 threshold of 100 µM); Bayesian Machine Learning [13]: +VE
NC(=O)OCC(COC(N)=O)c1ccccc1 [felbamate]	-VE	-VE	-VE	7	-VE	-VE			+VE		+VE		+VE	vMost-DILI-Concern	+VE	+VE	+VE	+VE	+VE	+VE	In vivo DILI ([2]; ref Dawson 2012): +VE; In vivo DILI ([2]; ref Persson 2013): +VE; hLiMTs ATP <100uM [10]: -VE; Structural based (HCI) ([3]; In vitro Assay, ref Xu 2008): -VE; PHH ATP <100uM [11]: -VE; Cluser analysis [14]: -VE; Structural based (HCI) [14]: -VE; Bayesian Machine Learning [13]: +VE
C[C@](N)(Cc1ccc(O)c(O)c1)C(=O)O [methyldopa]	-VE	-VE	-VE	8	-VE	-VE							+VE	vMost-DILI-Concern	+VE	+VE	+VE		+VE	-VE	In vivo DILI ([2]; ref Dawson 2012): +VE; In vivo DILI ([2]; ref Persson 2013): +VE; In vivo DILI ([2]; ref Porceddu 2012): -VE; Cluser analysis [14]: -VE; Structural based (HCI) [14]: +VE; in vitro data EC2<=1x Cmax [16]: +VE; in vitro data EC20<=2uM [16]: -VE
Fc1ccc([C@@H]2CCNC[C@H]2COc2ccc3c(c2)OCO3)cc1 [paroxetine]				8			+VE	-VE	+VE	-VE	+VE	-VE	+VE	vLess-DILI-Concern	-VE			-VE	+VE	-VE	In vivo DILI ([2]; ref Aleo 2019): +VE; hLiMTs ATP <100uM [10]: +VE (IC50 threshold of 100 µM); Structural based (HCI) ([3]; In vitro Assay, ref Xu 2008): -VE; PHH ATP <100uM [11]: +VE (IC50 threshold of 100 µM); Bayesian Machine Learning [13]: +VE
CC1=C(CC(=O)O)c2cc(F)ccc2/C1=C\c1ccc([S+](C)[O-])cc1 (stereo not shown) [sulindac]	-VE		-VE	8	+VE	+VE							+VE	vMost-DILI-Concern	+VE	+VE	+VE	+VE	+VE	+VE	In vivo DILI ([2]; ref Aleo 2019): +VE; In vivo DILI ([2]; ref Dawson 2012): +VE; In vivo DILI ([2]; ref Persson 2013): +VE; In vivo DILI ([2]; ref Porceddu 2012): +VE; In vivo DILI ([2]; ref Schadt 2015): +VE; Structural based (HCI) ([3]; In vitro Assay, ref Xu 2008): +VE; Cluser analysis [14]: -VE; Structural based (HCI) [14]: -VE; Cellular toxicity (3T3 cells) [12]: -VE; Combined Assay [12]: +VE; GSH adduct HML [12]: +VE; Hepatocyte cellular toxicity [12]: -VE; MitoTox 3T3 [12]: -VE; TDI CYP3A4 [12]: -VE; hBSEP inhibition [12]: -VE; in vitro data EC2<=1x Cmax [16]: +VE; in vitro data EC20<=2uM [16]: +VE
CN(C/C=C/C#CC(C)(C)C)Cc1cccc2ccccc12 [terbinafine]	+VE	-VE	-VE	8									+VE	vMost-DILI-Concern		+VE	+VE		+VE	+VE	In vivo DILI ([2]; ref Porceddu 2012): +VE; in vitro data EC2<=1x Cmax [16]: +VE; in vitro data EC20<=2uM [16]: +VE
CN1CCN(CCCN2c3ccccc3Sc3ccc(C(F)(F)F)cc32)CC1 [trifluoperazine, reference compound]			+VE	2						+VE		-VE	-VE	Ambiguous DILI-concern		+VE		+VE	+VE	-VE	in vivo DILI classification in publications of Supplemental Table 1 ([2]; publications disagreeing with the LTKB classification, ref Supplemental Table 1 publications): DILI positive in vivo; Structural based (HCI) ([3]; In vitro Assay, ref Xu 2008): +VE
